Experimental data from patent US20110183942A1, “Methods and Compositions for Treating Alzheimer's Disease” (UNIVERSITY OF MEDICINE AND DENTISTRY OF NEW JERSEY, priority 2008, published 2011).

Columns and labels:
[1] = tested on: global protein synthesis in cultured neurons; assay: Metabolic labeling, incorporation of 35S methionine and cysteine into TCA precipitant; type: cell-based
Description: To measure the incorporation of ^35S methionine and cysteine into new peptide, 30 μl protein labeling mix (Perkin Elmer) was added into 1.5 ml of regular culture medium (final 220 μCi/ml) for the time indicated in the figures. After washout once with ice-cold PBS, cells were lysed with 700 μl of RIPA buffer. After quantification of total amount of protein, equal amount of lysate (˜200 μl) was precipitated with 10% TCA.

[2] = tested on: Arc mRNA in cultured neurons; assay: Real-time RT-PCR of Arc mRNA; type: cell-based; conditions: BDNF 10 ng/ml at 40 min; forskolin 50 μM at 20 min; DHPG at 20 and 40 min after stimulation
Description: RNA samples from neuronal cultures were prepared using the PARIS kit (Ambion) according to the manufacturer's protocol. Following RNA extraction, samples were treated with DNase to remove contaminating DNA prior to cDNA synthesis. Total RNA was reverse transcribed using the SuperScript II First Strand Synthesis System for RT-PCR (Invitrogen) according to the manufacturer's protocol. A negative control without reverse transcriptase was included.
Primer specificity was verified by melt curve analysis. PCR amplification of cDNA was performed using the BioRad iCycler Real-Time Detection System (BioRad Laboratories). cDNA (1 μl) was added to 24 μl of 1× reaction master mix (3 mM MgCl2, KCl, Tris-HCl, iTaq DNA polymerase, 25 units/ml SYBR Green 1, 0.2 mM each dNTPs, 10 nM fluorescein and 500 nM each gene specific primers). […]
GAPDH was used to normalize data. The threshold for detection of PCR product above background was set at 10× the standard deviation of the mean background fluorescence for all reactions. Background fluorescence was determined from cycles 1-5 prior to the exponential amplification of product and subtracted from the raw fluorescence of each reaction/cycle. […] Threshold cycle (CT; number of cycles to reach threshold of detection) was determined for each reaction.
Relative gene expression was determined using the 2^−ΔΔCT method (Livak, et al., Methods 25, 402-408 (2001)). […]

[3] = tested on: surface AMPA receptor (GluR2/3, GluR1) in cultured neurons; assay: Surface biotinylation assay of AMPA receptor subunits; type: cell-based, mouse; conditions: DHPG 5 min
Description: For surface biotinylation, drug-treated cortical neurons were cooled on ice, washed twice with ice-cold PBS++ (1× PBS, 1 mM CaCl2, 0.5 mM MgCl2) and then incubated with PBS++ containing 1 mg/ml Sulfo-NHS-SSBiotin (Pierce) for 30 min at 4° C. Unreacted biotin was quenched by washing cells three times with PBS++ containing 100 mM Glycine (pH 7.4) (briefly once and for 5 min twice). Cultures were harvested in RIPA buffer and sonicated. Homogenates were centrifuged at […] for 20 min at 4° C. Fifteen % of supernatant was saved as the total protein. […] Precipitates were washed with RIPA buffer three times (5 min each time). All procedures were done at 4° C.

[4] = tested on: Arc protein in DIV14 hippocampal neurons; assay: Arc immunocytochemistry in cultured hippocampal neurons; type: cell-based, mouse
Description: Immunocytochemistry of cultured neurons was performed as described (Shepherd et al., Neuron, 52, 475-484 (2006)). Briefly, DIV14 primary hippocampal neurons were fixed in fixation solution (4% paraformaldehyde, 4% sucrose containing 1× PBS) for 20 min at 4° C. and were permeabilized with 0.2% Triton X-100 in PBS for 10 min 4° C. Cells were then blocked for 1 hr at room temperature in 10% normal goat serum (NGS). Primary antibodies were diluted (1:250 of phospho-eEF2 antibody, 1:500 of PSD95, 1:300 for Arc) in 10% NGS and incubated with neurons for overnight at 4° C. Alexa 488, or Alexa 555-conjugated secondary antibodies (1:500; Molecular Probes) were diluted in 10% NGS and incubated at room temperature for 1 hr. Coverslips were mounted with PermaFluor containing DAPI (Invitrogen). All images were taken with same exposure and setting using Zeiss 510 Meta confocal microscope. Quantification of Arc levels was carried out using Image J software. For the measurement of dendritic Arc levels, average pixel intensity was measured in the primary dendrites 20 μm away from the soma.

eEF2K-mGluR5 interaction = biological target: T1, eEF2K-mGluR5 interaction (Mus musculus, UniProt Q3UVX5); assay: Co-immunoprecipitation of mGluR5 with eEF2K in synaptoneurosomes; conditions: WT forebrain synaptoneurosomes, DHPG 20 min
T1 construct: confirmed that native mGluR5 associated with eEF2K; from tissue; host or cells: mouse forebrain synaptoneurosomes
T1 sequence (Q3UVX5 21-1203 limits assumed): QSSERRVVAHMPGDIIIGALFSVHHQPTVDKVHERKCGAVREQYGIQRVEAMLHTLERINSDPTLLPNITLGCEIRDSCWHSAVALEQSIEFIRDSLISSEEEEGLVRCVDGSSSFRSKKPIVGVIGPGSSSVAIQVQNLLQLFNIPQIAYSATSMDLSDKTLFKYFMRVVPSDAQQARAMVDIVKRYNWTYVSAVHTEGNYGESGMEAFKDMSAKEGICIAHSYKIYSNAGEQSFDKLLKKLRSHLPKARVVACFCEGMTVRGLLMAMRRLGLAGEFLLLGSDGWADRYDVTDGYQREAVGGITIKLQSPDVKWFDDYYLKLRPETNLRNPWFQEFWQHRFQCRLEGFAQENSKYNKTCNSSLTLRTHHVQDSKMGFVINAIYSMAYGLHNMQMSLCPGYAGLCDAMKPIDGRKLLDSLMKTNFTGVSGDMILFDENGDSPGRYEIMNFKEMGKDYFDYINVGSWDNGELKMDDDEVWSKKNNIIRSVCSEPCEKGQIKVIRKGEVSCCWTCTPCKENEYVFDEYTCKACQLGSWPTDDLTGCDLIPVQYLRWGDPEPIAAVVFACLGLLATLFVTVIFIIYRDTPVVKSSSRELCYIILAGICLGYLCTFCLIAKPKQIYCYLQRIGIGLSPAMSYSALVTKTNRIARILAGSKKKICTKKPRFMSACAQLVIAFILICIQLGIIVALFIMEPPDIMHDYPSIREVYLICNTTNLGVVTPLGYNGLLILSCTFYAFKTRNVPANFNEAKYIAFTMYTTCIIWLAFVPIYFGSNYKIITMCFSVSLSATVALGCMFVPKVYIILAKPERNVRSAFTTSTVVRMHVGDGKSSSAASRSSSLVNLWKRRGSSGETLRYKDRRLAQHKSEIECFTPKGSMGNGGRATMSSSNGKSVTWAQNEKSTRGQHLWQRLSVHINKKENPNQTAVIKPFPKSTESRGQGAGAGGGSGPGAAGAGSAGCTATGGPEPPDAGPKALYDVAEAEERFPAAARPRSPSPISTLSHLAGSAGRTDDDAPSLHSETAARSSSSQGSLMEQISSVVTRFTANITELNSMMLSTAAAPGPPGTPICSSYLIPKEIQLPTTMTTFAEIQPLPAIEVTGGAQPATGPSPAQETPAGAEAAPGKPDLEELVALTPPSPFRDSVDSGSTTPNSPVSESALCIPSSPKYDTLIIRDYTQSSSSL

NC(C(=O)O)c1cc(O)cc(O)c1 (racemic) [DHPG, (R,S)-3,5-DHPG]
global protein synthesis compared to untreated control ([1]; pretreatment of DHPG (30 min before harvest for 5 min)): 1.080±0.036 | global protein synthesis compared to untreated control ([1]; simultaneous treatment of DHPG for 5 min): 0.926±0.017 | level of Arc mRNA [2]: slightly increased the level of Arc mRNA | reduction of ratio of surface to total GluR2/3 ([3]; WT neurons): ~30% | reduction of ratio of surface to total GluR2/3 ([3]; eEF2K KO neurons): did not significantly reduce | Arc immunoreactivity in dendrites ([4]; DHPG 50 μM 5 min, relative to untreated dendrites): 1.58±0.095 | Arc immunoreactivity in cell body ([4]; DHPG 50 μM 5 min, relative to untreated soma): 1.34±0.063 | level of Arc in soma or dendrites after DHPG ([4]; eEF2K KO hippocampal neurons): did not change the level of Arc | co-IP of mGluR5 with eEF2K (eEF2K-mGluR5 interaction): decreased the co-IP of mGluR5
